From BindingDB's records for doi:10.7270/Q2ZW1JC6 (Nmmlsc, 2016)

Molecular target: Ras-related protein Rab-2A (Canis lupus familiaris, UniProt P61105)
Assay: Rab2 wildtype GTP-binding inhibitors, SAR follow-up, biochemical, pyrazoline series, Bodipy-FL-GTP, flow cytometry, multiplex (AID 2045)

Chain of Ras-related protein Rab-2A (P61105 whole entry): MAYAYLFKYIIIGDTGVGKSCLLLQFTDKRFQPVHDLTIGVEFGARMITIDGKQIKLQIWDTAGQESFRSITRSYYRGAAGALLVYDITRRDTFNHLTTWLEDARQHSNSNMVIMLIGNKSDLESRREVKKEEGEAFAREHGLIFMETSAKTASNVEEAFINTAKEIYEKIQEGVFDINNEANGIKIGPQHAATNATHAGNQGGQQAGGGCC

EC50 [µM] | SMILES
> 30 | CN(C)c1ccc(C2CC(c3ccc(Br)cc3)=NN2c2ccccc2)cc1 (stereo not given) [UNM-0000305846]
> 30 | CN(C)c1ccc(C2CC(c3ccc(Cl)cc3)=NN2c2ccccc2)cc1 (stereo not given) [UNM-0000305847]
> 30 | COc1ccc(C2=NN(c3ccccc3)C(c3ccc(OC)c(OC)c3C(=O)O)C2)cc1 (stereo not given) [UNM-0000305848]
> 30 | Cc1ccccc1[N+]1=N[C-](c2ccccc2)CC1c1cccc([N+](=O)[O-])c1 (stereo not given) [UNM-0000305854]
> 30 | COc1ccccc1N1N=C(c2ccccc2)CC1c1ccccc1 (stereo not given) [UNM-0000305855]
> 30 | O=[N+]([O-])c1cccc(C2C[C-](c3ccccc3)N=[N+]2c2ccccc2)c1 (stereo not given) [UNM-0000305857]
> 30 | COc1ccc(C2CC(c3ccc(Cl)cc3)=NN2c2ccccc2)cc1OC (stereo not given) [UNM-0000305858]
> 30 | FC(F)(F)c1cccc(N2N=C(c3ccc(Cl)cc3)CC2c2ccccc2Cl)c1 (stereo not given) [UNM-0000305859]
> 30 | COc1ccc(C2=NN(c3ccccc3F)C(c3ccc(F)cc3)C2)cc1 (stereo not given) [UNM-0000305860]
> 30 | COc1ccc(C2=NN(c3ccc(Cl)cc3)C(c3ccccc3F)C2)cc1 (stereo not given) [UNM-0000305863]
> 30 | COc1ccc(C2CC(c3ccc(F)cc3)=NN2c2ccccc2)cc1OC (stereo not given) [UNM-0000305864]
> 30 | CN(C)c1ccc(C2CC(c3ccc(F)cc3)=NN2c2ccccc2)cc1 (stereo not given) [UNM-0000305866]
> 30 | COc1ccc(C2CC(c3ccccc3)=NN2c2ccc(C(N)=O)cc2)cc1 (stereo not given) [UNM-0000305870]
> 30 | COc1ccc(C2CC(c3ccccc3)=NN2c2ccc(C(=O)O)cc2)cc1 (stereo not given) [UNM-0000306085]
> 30 | COc1ccc(C2CC(c3ccccc3F)=NN2c2ccc(S(N)(=O)=O)cc2)cc1 (stereo not given) [UNM-0000306110]
> 30 | COc1ccc(C2CC(c3ccccc3Br)=NN2c2ccc(S(N)(=O)=O)cc2)cc1 (stereo not given) [UNM-0000306112]
> 30 | COc1ccc(C2CC(c3cccc(Br)c3)=NN2c2ccc(S(N)(=O)=O)cc2)cc1 (stereo not given) [UNM-0000306113]
> 30 | COc1ccc(C2CC(c3cccc(Cl)c3)=NN2c2ccc(S(N)(=O)=O)cc2)cc1 (stereo not given) [UNM-0000306134]
> 30 | COc1ccc(C2CC(c3ccc(Br)cc3)=NN2c2ccc(S(N)(=O)=O)cc2)cc1 (stereo not given) [UNM-0000306138]
> 30 | NS(=O)(=O)c1ccc(N2N=C(c3ccccc3)CC2c2cccc(Br)c2)cc1 (stereo not given) [UNM-0000306147]
> 30 | Cc1ccccc1C1CC(c2ccccc2)=NN1c1ccc(S(N)(=O)=O)cc1 (stereo not given) [UNM-0000306148]
> 30 | COc1ccc(C2CC(c3ccccc3C)=NN2c2ccc(S(N)(=O)=O)cc2)cc1 (stereo not given) [UNM-0000306152]
> 30 | COc1ccc(C2CC(c3cccc(C)c3)=NN2c2ccc(S(N)(=O)=O)cc2)cc1 (stereo not given) [UNM-0000306153]
> 30 | NS(=O)(=O)c1ccc(N2N=C(c3ccccc3)CC2c2ccc(Br)cc2)cc1 (stereo not given) [UNM-0000306160]
> 30 | NS(=O)(=O)c1ccc(N2N=C(c3ccccc3)CC2c2cccc(Cl)c2)cc1 (stereo not given) [UNM-0000306161]
